Among the data in PubChem BioAssay (NCI) are GI50 and TGI values, retold here.

Among the test systems are SF-295 CNS; SK-MEL-28 melanoma; SK-MEL-2 melanoma; 786-0 renal; CCRF-CEM leukemia; UACC-257 melanoma; DU-145 prostate; HCT-15 colon; M14 melanoma; NCI-H226 lung.
Common to all, as to experiment: NCI anticancer screen, dose series, 48 h

Several values for one entry are separate records, joined by “and”; a condition that tells them apart may be missing. Identical values can stand only once.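 Tested at 5 concentrations; 48 h exposure; 96-well plates; endpoints linearly interpolated, else capped at highest concentration. The concentration for 50% growth inhibition is given as GI50. TGI denotes the concentration required for complete inhibition of growth.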

In the case of `COc1cc(Cn2c(-c3nonc3N)nc3ccccc32)ccc1C`, the GI50 with SF-295 CNS is 340 nM; in the assay on SK-MEL-28 melanoma, 2910 nM; in the assay on SK-MEL-2 melanoma it was 417 nM; in the assay on 786-0 renal it was 0.55 µM; in the assay with CCRF-CEM leukemia, 403 nM; with UACC-257 melanoma, 419 nM. The GI50 was 605 nM in the assay with DU-145 prostate, 427 nM in the assay with HCT-15 colon, 426 nM in the assay with M14 melanoma and 1910 nM with NCI-H226 lung. Also, the TGI is 5.63 µM in the assay with SF-295 CNS; > 62.7 µM with SK-MEL-28 melanoma; 9.97 µM in the assay on SK-MEL-2 melanoma; 23.6 µM in the assay with 786-0 renal; > 100 µM in the assay with CCRF-CEM leukemia; > 100 µM in the assay with UACC-257 melanoma. Further, the TGI in the assay with DU-145 prostate is > 37.8 µM; with HCT-15 colon, > 100 µM; in the assay with M14 melanoma it was 34.8 µM; in the assay on NCI-H226 lung it was > 100 µM.
As to `c1nnc(NCNc2nncs2)s1`, the TGI in the assay on SF-295 CNS, in the assay with SK-MEL-28 melanoma, in the assay with SK-MEL-2 melanoma, in the assay on 786-0 renal, in the assay on CCRF-CEM leukemia and in the assay with UACC-257 melanoma was > 100 µM each time. The TGI in the assay on DU-145 prostate, in the assay with HCT-15 colon, with M14 melanoma and with NCI-H226 lung was > 100 µM each time.
Consider `OCC1OC(n2cnc3c(/C=C(/O)c4ccccc4)ncnc32)C(O)C1O` (stereo not drawn), for which the TGI was > 100 µM in the assay on SF-295 CNS; > 100 µM in the assay with SK-MEL-28 melanoma; > 24.7 µM with SK-MEL-2 melanoma; > 100 µM in the assay with 786-0 renal; > 100 µM in the assay with CCRF-CEM leukemia; > 62.9 µM in the assay with UACC-257 melanoma. Besides, the TGI in the assay on DU-145 prostate is > 100 µM; with HCT-15 colon, > 100 µM; in the assay with M14 melanoma it was > 100 µM; in the assay on NCI-H226 lung, > 92.7 µM.
`CNC(=S)N/N=C/c1ccc([N+](=O)[O-])s1`: the TGI with SF-295 CNS, in the assay on SK-MEL-28 melanoma, in the assay on SK-MEL-2 melanoma, in the assay with 786-0 renal, in the assay on CCRF-CEM leukemia and in the assay on UACC-257 melanoma was > 10 µM in each case. Besides, the TGI with DU-145 prostate, in the assay with HCT-15 colon, in the assay on M14 melanoma and in the assay with NCI-H226 lung was > 10 µM each time.
As to `CN[C@@H]1C[C@H]2O[C@@](C)([C@@H]1OC)n1c3ccccc3c3c4c(c5c6ccccc6n2c5c31)C(=O)N[C@@H]4O`, the GI50 was 36.7 nM with SF-295 CNS; 34.8 nM with SK-MEL-2 melanoma; 84.8 nM in the assay on UACC-257 melanoma; 55.6 nM with HCT-15 colon; 31.1 nM with M14 melanoma; 49.2 nM in the assay on NCI-H226 lung. In addition, the TGI with SF-295 CNS was 0.3 µM and 0.204 µM; in the assay with SK-MEL-28 melanoma, 2.31 µM; with SK-MEL-2 melanoma, 0.245 µM and 0.123 µM; in the assay with 786-0 renal, 0.172 µM; in the assay with CCRF-CEM leukemia it was 1.39 µM; with UACC-257 melanoma it was 0.3 µM and 1.9 µM. In addition, the TGI with DU-145 prostate is 1.16 µM; in the assay with HCT-15 colon, 0.3 µM and 1.33 µM; in the assay on M14 melanoma, 0.3 µM and 1.25 µM; in the assay on NCI-H226 lung, 0.3 µM and 0.477 µM.
Regarding `CC[C@@]1(O)C(=O)OCc2c1cc1n(c2=O)Cc2cc3cc(N)ccc3nc2-1`, the GI50 in the assay with SF-295 CNS was 2.07 nM; in the assay with SK-MEL-28 melanoma, 183 nM and 56.3 nM; with SK-MEL-2 melanoma it was 528 nM and 311 nM; with 786-0 renal, 0.0119 µM; in the assay on CCRF-CEM leukemia it was 100 nM; in the assay on UACC-257 melanoma, 44.1 nM and 42.3 nM. Also, the GI50 was 14.4 nM in the assay on DU-145 prostate; 214 nM and 102 nM in the assay with HCT-15 colon; 16.2 nM in the assay with M14 melanoma; 7.42 nM and 14.3 nM with NCI-H226 lung. The TGI with SF-295 CNS is 0.0717 µM and 0.055 µM; with SK-MEL-28 melanoma it was 4.58 µM and 2.2 µM; in the assay with SK-MEL-2 melanoma, 1.58 µM; with 786-0 renal it was 0.208 µM and 0.027 µM; in the assay with UACC-257 melanoma it was 0.642 µM and 0.375 µM; in the assay on M14 melanoma, 0.404 µM and 0.0409 µM. The TGI in the assay with NCI-H226 lung was 0.111 µM and 0.108 µM.
Turning to `Nc1ccc(S(=O)(=O)NCc2nccs2)cc1`, the TGI with SF-295 CNS was > 100 µM; in the assay on SK-MEL-28 melanoma, 51.2 µM; in the assay on SK-MEL-2 melanoma it was 37.9 µM; in the assay with 786-0 renal it was 77.3 µM; with CCRF-CEM leukemia, 38.2 µM; with UACC-257 melanoma, 44.5 µM. For the same compound, the TGI with DU-145 prostate is 95.5 µM; with HCT-15 colon, 83.8 µM; with M14 melanoma, 37.2 µM; in the assay with NCI-H226 lung, 59 µM.
On to `N#C[C@@H]1C(n2ccc(N)nc2=O)O[C@H](CO)[C@H]1O` (stereo partly drawn), for which the GI50 was > 100000 nM with SF-295 CNS; 64200 nM in the assay with SK-MEL-28 melanoma; > 100000 nM with SK-MEL-2 melanoma; 13.2 µM in the assay with 786-0 renal; 135 nM in the assay with CCRF-CEM leukemia; > 93300 nM in the assay with UACC-257 melanoma. The GI50 is 5020 nM with DU-145 prostate, > 100000 nM with HCT-15 colon, 2970 nM in the assay on M14 melanoma and > 57000 nM in the assay on NCI-H226 lung. In addition, the TGI with SF-295 CNS, with SK-MEL-28 melanoma, with SK-MEL-2 melanoma, with 786-0 renal, in the assay on CCRF-CEM leukemia and in the assay on UACC-257 melanoma was > 100 µM throughout. Besides, the TGI in the assay with DU-145 prostate, in the assay on HCT-15 colon, in the assay with M14 melanoma and with NCI-H226 lung was > 100 µM throughout.
As to `C=C1C(=O)O[C@H]2C[C@@]3(C)[C@H](O)CCC(=C)[C@@H]3[C@@H](OC(C)=O)[C@H]12`, the TGI with SF-295 CNS is 40.5 µM; in the assay on SK-MEL-28 melanoma, > 65.9 µM; with SK-MEL-2 melanoma, 37.6 µM; with 786-0 renal, 32 µM; with CCRF-CEM leukemia, 2.96 µM; in the assay with UACC-257 melanoma it was 34.8 µM. Besides, the TGI worked out at 26.6 µM in the assay with DU-145 prostate, 7.93 µM in the assay with HCT-15 colon, 25.2 µM in the assay on M14 melanoma and 49.2 µM in the assay with NCI-H226 lung.
Consider `CC(C)(C)NC(=O)[C@H]1C[C@H]2CCCC[C@H]2CN1C[C@@H](O)[C@H](Cc1ccccc1)NC(=O)[C@H](CC(N)=O)NC(=O)c1ccc2ccccc2n1`, for which the GI50 in the assay with SF-295 CNS is 18300 nM; in the assay on SK-MEL-28 melanoma, 16900 nM; in the assay on SK-MEL-2 melanoma it was 22700 nM; in the assay with 786-0 renal, 13.8 µM; in the assay on CCRF-CEM leukemia, 9310 nM; in the assay with UACC-257 melanoma, 13400 nM. The GI50 was 1780 nM in the assay with DU-145 prostate, 14000 nM in the assay on HCT-15 colon, 13300 nM with M14 melanoma and 15400 nM in the assay with NCI-H226 lung. The TGI was 39.3 µM with SF-295 CNS; 33.1 µM in the assay with SK-MEL-28 melanoma; > 65.7 µM in the assay with SK-MEL-2 melanoma; 31.1 µM in the assay with 786-0 renal; 28 µM in the assay with CCRF-CEM leukemia; 28.2 µM in the assay on UACC-257 melanoma. In addition, the TGI with DU-145 prostate was determined as 6.95 µM; with HCT-15 colon, 33.8 µM; in the assay with M14 melanoma it was 28 µM; in the assay on NCI-H226 lung, 32.8 µM.
